Converted amounts (≈) assume the structure as drawn. “Also recorded” adds a separate entry of the source. Where two headings read alike, the source gives them in different places.
What was measured:
human ABCB1 [1] = biological target: T1, human ABCB1 (Homo sapiens, UniProt P08183); experiment: Cellular transport assay, Calcein-AM uptake in ABCB1-overexpressing PLB cells; format: cell-based; details: S6 summary table; note: key: 0: no observed effect; +: effect observed in the assay; In the ATPase assay showing only inhibition, the - sign is applied
Protocol: (§1) For cellular transport assays, mammalian PLB (lymphoblastoid) cell lines, overexpressing ABCB1 or ABCG2 were used. The parental PLB cell line was purchased from ATCC, and ABCB1 or ABCG2 overexpressing cell lines were established by using lentiviral vectors for human ABC transporters as described earlier in [29]. The transport assays were carried out in 96-well plates. 1x10^5 cells were incubated in the presence of 0.1 μM Calcein-AM or 1 μM DCV (Dye Cycler Violet) for the ABCB1 and for the ABCG2 assays, respectively. The assay was performed in HPMI medium (NaCl 120 mM, KCl 5 mM, MgCl2 0.4 mM, CaCl2 0.04 mM, HEPES 10 mM, NaHCO3 10 mM, glucose 10 mM, Na2HPO4 5 mM; pH 7.4). Fluorescence of the cells was detected using a Victor X3 plate reader (for Calcein, exc. at 485 nm, em. at 535 nm) or the Enspire 2300 (Perkin Elmer) plate reader (for DCV, exc. at 360 nm, em. at 440 nm). Kinetics of fluorescence intensity changes were analyzed to determine relative inhibition, compared to that of a reference agent, providing full inhibition of the ABC transporter. Two of the Vichem compounds examined (VCC979812 and VCC38977) were not compatible with the DCV uptake assay because of their intrinsic fluorescence, therefore for these two compounds ABCG2 transport inhibition was characterized by following mitoxantrone uptake. Mitoxantrone uptake was measured by flow cytometry (BD FACSCanto at 633 nm) by 20 minutes incubation in the presence of 7.5 μM mitoxantrone. Each compound was measured in at least three independent experiments with three parallels in each case. DMSO, used as a solvent of compounds had no effect in this assay at the applied concentration.

H37Rv Mtb strain = experiment: H37Rv growth inhibition, resazurin reduction microplate assay (REMA); format: cell-based, Mycobacterium tuberculosis; details: for MIC90: Mycobacterium tuberculosis, H37RV, minimum concentration providing 90% growth inhibition, 20 to 0.04 μM, N.I. = no inhibition observed up to 20 μM, read-out: MIC90 of compounds in H37Rv growth test; for Toxicity in H37Rv assay (summary): S6 summary table; for Growth inhibition of H37Rv mycobacteria (in words): tested up to 20 μM
[2] = system: ABCG2-overexpressing A431 cell line; details: 72 h; for ABC transporter modified cytotoxicity, ABCG2 (summary): human; for Resistance modulation by ABCG2 (fold increase in IC50): ABCG2-expressing versus parental A431 cells
[3] = system: ABCB1-overexpressing A431 cell line; details: 72 h; for ABC transporter modified cytotoxicity, ABCB1 (summary): human; for Resistance modulation by ABCB1 (fold increase in IC50): ABCB1-expressing versus parental A431 cells
human ABCG2 [4] = biological target: T2, human ABCG2 (Homo sapiens, UniProt Q9UNQ0); experiment: Vanadate-sensitive ATPase activity assay in Sf9 membrane vesicles, ABCG2; format: biochemical; set-up: made in house; host or cells: Sf9 insect cells (baculovirus), membrane vesicles; details: for ABC transporter ATPase assay, ABCG2 (summary): S6 summary table; for ABCG2 ATPase Vmax: vanadate-sensitive ATPase, from dose-response curves, basal 22±1.4
T2 sequence (Q9UNQ0 1-655): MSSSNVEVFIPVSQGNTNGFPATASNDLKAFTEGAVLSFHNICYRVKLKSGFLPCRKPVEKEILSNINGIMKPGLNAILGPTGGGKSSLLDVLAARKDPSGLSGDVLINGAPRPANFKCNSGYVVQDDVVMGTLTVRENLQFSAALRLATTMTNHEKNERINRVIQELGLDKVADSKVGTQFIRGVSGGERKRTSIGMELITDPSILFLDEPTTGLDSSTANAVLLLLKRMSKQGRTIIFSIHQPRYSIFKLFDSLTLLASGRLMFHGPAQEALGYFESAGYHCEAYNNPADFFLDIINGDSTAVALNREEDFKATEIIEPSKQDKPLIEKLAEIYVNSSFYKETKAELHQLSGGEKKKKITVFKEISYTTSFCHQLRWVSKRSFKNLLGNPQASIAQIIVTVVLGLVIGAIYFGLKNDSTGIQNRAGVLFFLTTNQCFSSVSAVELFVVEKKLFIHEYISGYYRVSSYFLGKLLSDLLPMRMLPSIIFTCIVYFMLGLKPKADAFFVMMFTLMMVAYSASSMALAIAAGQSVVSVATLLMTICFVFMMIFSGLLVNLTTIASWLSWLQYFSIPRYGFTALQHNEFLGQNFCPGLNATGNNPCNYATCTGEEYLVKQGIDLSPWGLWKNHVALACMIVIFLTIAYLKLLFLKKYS

human ABCB1 [5] = biological target: T1, human ABCB1; experiment: Vanadate-sensitive ATPase activity assay in Sf9 membrane vesicles, ABCB1; format: biochemical; set-up: made in house; host or cells: Sf9 insect cells (baculovirus), membrane vesicles; ABCB1 ATPase Vmax: unit not given here; details: for Effect on ABCB1-ATPase activity (in words): Sf9 membrane vesicles, 0.1–10 μM for the stimulation in b53; for ABCB1 ATPase Vmax: vanadate-sensitive ATPase, from dose-response curves, basal 5.7±0.7; for ABC transporter ATPase assay, ABCB1 (summary): key: 0: no observed effect; +: effect observed in the assay; In the ATPase assay showing only inhibition, the - sign is applied
[6] = system: HFF, HEK293 and A431 cell lines; format: cell-based, human
Protocol: (§2) The toxic effects of the selected MtTopo-I inhibitory Vichem compounds were tested in three cell lines, HFF (human foreskin fibroblast), HEK293 (human embryonic kidney) and A431 (human epidermoid carcinoma) cell lines, obtained from ATCC. Establishment of ABC transporter-expressing A431cell lines was achieved by retroviral transduction of the cells as described previously.
(§3) For cytotoxicity measurements the cells were seeded in a 96-well culture plate at 5,000 cells/well (A431, HEK293) or 6000 cells/well (HFF) and incubated overnight. […] After 72 hours of incubation viability was assessed by PrestoBlue® assay (Invitrogen). IC50 values were obtained by sigmoidal curve fitting in the GraphPad Prism software. All experiments were performed in triplicates and repeated at least in three independent experiments. DMSO, used as solvent of the compounds, had no effect on viability at the applied concentration.

MtTopo-I = biological target: T3, MtTopo-I (Mycobacterium tuberculosis, UniProt P9WG49); experiment: DNA relaxation assay of supercoiled pUC18 DNA by MtTopo-I; format: biochemical; details: minimum concentration providing complete inhibition
T3 construct: made in house; host or cells: E. coli

HEK293 cell line = experiment: Cytotoxicity, PrestoBlue 72 h, HEK293; format: cell-based, human; details: Homo sapiens, HEK293, Non-toxic = not toxic up to 20 μM, read-out: Toxicity in HEK293 cell line, IC50
Protocol: as §2, §3

parental A431 cell line = experiment: Cytotoxicity, PrestoBlue 72 h, parental A431; format: cell-based, human; details: Non-toxic = not toxic up to 20 μM, read-out: Toxicity in parental A431 cell line, IC50
Protocol: as §2, §3

HFF cell line = experiment: Cytotoxicity, PrestoBlue 72 h, HFF; format: cell-based, human; details: Non-toxic = not toxic up to 20 μM, read-out: Toxicity in HFF cell line, IC50
Protocol: as §2, §3

human ABCG2 [7] = biological target: T2, human ABCG2; experiment: Cellular transport assay, DCV or mitoxantrone uptake in ABCG2-overexpressing PLB cells; format: cell-based; set-up: expressed in transfected cells; host or cells: PLB (human lymphoblastoid) cells, lentiviral transduction; details: S6 summary table; note: key: 0: no observed effect; +: effect observed in the assay; In the ATPase assay showing only inhibition, the - sign is applied
Protocol: as §1

T1 sequence (P08183 whole entry): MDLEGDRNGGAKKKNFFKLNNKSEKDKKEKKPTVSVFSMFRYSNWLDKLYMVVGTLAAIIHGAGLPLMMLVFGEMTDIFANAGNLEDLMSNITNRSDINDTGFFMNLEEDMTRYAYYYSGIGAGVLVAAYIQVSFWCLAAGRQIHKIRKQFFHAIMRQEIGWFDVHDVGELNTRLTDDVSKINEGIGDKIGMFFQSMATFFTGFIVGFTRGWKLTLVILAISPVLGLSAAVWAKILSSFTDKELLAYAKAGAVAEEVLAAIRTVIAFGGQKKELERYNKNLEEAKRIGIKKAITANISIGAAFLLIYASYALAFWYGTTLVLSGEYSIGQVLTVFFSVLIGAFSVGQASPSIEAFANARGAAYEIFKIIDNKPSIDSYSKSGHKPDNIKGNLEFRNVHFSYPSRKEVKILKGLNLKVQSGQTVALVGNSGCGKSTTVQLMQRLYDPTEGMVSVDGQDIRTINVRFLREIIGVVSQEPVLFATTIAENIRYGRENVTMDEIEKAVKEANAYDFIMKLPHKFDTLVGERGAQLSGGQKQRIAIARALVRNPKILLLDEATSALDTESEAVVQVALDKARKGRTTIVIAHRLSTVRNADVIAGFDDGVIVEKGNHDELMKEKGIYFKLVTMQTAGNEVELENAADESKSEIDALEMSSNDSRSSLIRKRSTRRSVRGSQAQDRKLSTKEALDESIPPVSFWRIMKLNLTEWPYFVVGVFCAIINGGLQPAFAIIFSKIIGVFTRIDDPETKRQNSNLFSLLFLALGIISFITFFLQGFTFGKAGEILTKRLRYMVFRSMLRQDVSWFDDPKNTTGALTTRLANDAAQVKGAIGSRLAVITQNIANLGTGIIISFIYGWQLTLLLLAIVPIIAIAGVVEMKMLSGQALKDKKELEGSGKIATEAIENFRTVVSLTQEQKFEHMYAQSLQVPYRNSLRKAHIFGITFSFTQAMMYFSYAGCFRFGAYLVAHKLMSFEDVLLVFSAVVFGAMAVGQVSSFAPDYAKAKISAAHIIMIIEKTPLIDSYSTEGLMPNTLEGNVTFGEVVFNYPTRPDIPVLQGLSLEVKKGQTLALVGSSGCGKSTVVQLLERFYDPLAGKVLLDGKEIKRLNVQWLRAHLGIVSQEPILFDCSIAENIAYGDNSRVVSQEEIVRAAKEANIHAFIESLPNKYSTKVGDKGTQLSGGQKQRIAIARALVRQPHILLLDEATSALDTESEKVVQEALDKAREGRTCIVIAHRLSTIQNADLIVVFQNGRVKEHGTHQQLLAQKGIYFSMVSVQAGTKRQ
T3 sequence (P9WG49 whole entry): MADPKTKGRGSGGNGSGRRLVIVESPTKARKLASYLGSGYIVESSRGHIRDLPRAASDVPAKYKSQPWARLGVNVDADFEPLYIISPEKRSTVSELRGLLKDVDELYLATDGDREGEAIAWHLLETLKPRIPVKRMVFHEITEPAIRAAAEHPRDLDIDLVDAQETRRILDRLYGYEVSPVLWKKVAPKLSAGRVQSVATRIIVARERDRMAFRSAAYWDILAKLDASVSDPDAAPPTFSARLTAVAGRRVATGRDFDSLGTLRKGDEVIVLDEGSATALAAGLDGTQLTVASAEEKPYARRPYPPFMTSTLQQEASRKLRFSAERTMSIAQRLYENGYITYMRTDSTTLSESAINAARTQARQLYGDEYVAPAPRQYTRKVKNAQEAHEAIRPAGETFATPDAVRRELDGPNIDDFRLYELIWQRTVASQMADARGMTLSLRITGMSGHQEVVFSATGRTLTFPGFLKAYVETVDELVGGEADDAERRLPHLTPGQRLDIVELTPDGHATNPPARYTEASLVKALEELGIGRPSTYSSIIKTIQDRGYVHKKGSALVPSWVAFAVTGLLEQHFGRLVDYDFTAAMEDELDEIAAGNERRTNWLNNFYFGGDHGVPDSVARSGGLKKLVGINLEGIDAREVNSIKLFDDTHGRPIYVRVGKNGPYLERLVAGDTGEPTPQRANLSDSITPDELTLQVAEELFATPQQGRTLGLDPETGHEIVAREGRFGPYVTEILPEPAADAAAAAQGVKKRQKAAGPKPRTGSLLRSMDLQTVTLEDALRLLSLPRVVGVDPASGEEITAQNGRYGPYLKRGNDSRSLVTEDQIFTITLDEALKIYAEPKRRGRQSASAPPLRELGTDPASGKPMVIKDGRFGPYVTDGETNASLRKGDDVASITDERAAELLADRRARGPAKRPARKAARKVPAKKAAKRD

SMILES | ABC transporter transport assay, ABCB1 (summary) (human ABCB1 [1]) | MIC90 (H37Rv Mtb strain) [µM] | Toxicity in H37Rv assay (summary) (H37Rv Mtb strain) | Growth inhibition of H37Rv mycobacteria (in words) (H37Rv Mtb strain) | ABC transporter modified cytotoxicity, ABCG2 (summary) [2] | ABC transporter modified cytotoxicity, ABCB1 (summary) [3] | ABC transporter ATPase assay, ABCG2 (summary) (human ABCG2 [4]) | ABCG2 ATPase Vmax (human ABCG2 [4]) | Effect on ABCB1-ATPase activity (in words) (human ABCB1 [5]) | ABCB1 ATPase Vmax (human ABCB1 [5]) | Toxicity in human cell lines (in words) [6] | Toxicity in mammalian cell lines (summary) [6] | Complete inhibition of MtTopoI (MtTopo-I) [µM] | IC50 (HEK293 cell line) [µM] | IC50 (parental A431 cell line; Homo sapiens, A-431, 72 h) [µM] | IC50 (parental A431 cell line) [µM] | IC50 (HFF cell line; Homo sapiens, HFF) [µM] | IC50 (HFF cell line) [µM] | ABC transporter transport assay, ABCG2 (summary) (human ABCG2 [7]) | other results
COc1ccc(/C=C/c2nc(NCCCN(C)C)c3cc4ccccc4cc3n2)cc1 [VCC340963] | + | 2.5 (≈ 1.03 µg/mL) | + | effectively inhibited the growth | 0 | 0 | 0 | 22.2±4 | no measurable effect | 7.9±1.2 | toxic | + | 10 to 25 | 10 to 20 | < 5 | 3.23 | < 5 | 2.5 to 5 | + | Effect on ABCG2-ATPase activity (in words) (human ABCG2 [4]; Sf9 membrane vesicles, 0.1–10 μM for stimulation, 50 μM for inhibition): no measurable effect; ABC transporter ATPase assay, ABCB1 (summary) (human ABCB1 [5]; S6 summary table): 0
CN(C)CCCNc1nc(/C=C/c2ccc(Cl)cc2)nc2cc3ccccc3cc12 [VCC450822] | 0 | 5.1 (≈ 2.13 µg/mL) | + | effectively inhibited the growth | 0 | 0 | 0 | 23.3±2 | well measurable stimulatory effect; also recorded: slight stimulation of the ABCB1-ATPase activity at lower concentrations; also recorded: strongly inhibited ATPase activity at higher concentrations; also recorded: slightly increased | 10.5±1.5 | toxic | + | 10.0 | 10 to 20 | < 5 | 3.5 | < 5 | 2.5 to 5 | 0 | Resistance modulation by ABCG2 (fold increase in IC50) [2]: 1.0±0.03; Resistance modulation by ABCG2 (fold increase in IC50) ([2]; listed as VCC480522): no difference; Resistance modulation by ABCB1 (fold increase in IC50) [3]: 0.97±0.05; Resistance modulation by ABCB1 (fold increase in IC50) ([3]; listed as VCC480522): no difference
